Consider five compounds from patent publication US10188733B2 (priority 2010, dated 2019).

For the assay, the system named is VSV-specific neutralizing antibodies. It is filed as in vivo, mice. To be noted: for VSV antigen-specific neutralizing antibody titers: free bisphosphonate 2 mg footpad days -3 and -1, live VSV Indiana 10^4 pfu, serum day 8, vs control mice (FIG. 6); for antigen-specific antibody titers / increase in adaptive immune responses following immunization: mouse, in vivo.

For the compound `CC(O)(P(=O)(O)O)P(=O)(O)O` [etidronate], the “VSV antigen-specific neutralizing antibody titers” value is recorded as “increased”. The same measure, in the same setting: for `NCCC(O)(P(=O)(O)O)P(=O)(O)O` [pamidronate] the value was “increased”. For the compound dextran sulfate, the antigen-specific antibody titers entry is recorded as “did not increase” and the “increase in adaptive immune responses following immunization” value is given as “failed to induce an increase”.

On to carrageenan, for which the antigen-specific antibody titers result was “did not increase” and the “increase in adaptive immune responses following immunization” value is recorded as “failed to induce an increase”. In the case of `NCCCC(O)(P(=O)(O)O)P(=O)(O)O` [alendronate], the “VSV antigen-specific neutralizing antibody titers” value is “increased”.
